The values that follow are results of earlier work, collected in patent US12083109B2, “Neurokinin antagonists and uses thereof” (California Institute of Technology, priority 2017, dated 2024).

The series addresses T1, NK3R (Homo sapiens, UniProt P29371).
T1 construct: host or cells: human trial subjects
T1 sequence (P29371 1-465): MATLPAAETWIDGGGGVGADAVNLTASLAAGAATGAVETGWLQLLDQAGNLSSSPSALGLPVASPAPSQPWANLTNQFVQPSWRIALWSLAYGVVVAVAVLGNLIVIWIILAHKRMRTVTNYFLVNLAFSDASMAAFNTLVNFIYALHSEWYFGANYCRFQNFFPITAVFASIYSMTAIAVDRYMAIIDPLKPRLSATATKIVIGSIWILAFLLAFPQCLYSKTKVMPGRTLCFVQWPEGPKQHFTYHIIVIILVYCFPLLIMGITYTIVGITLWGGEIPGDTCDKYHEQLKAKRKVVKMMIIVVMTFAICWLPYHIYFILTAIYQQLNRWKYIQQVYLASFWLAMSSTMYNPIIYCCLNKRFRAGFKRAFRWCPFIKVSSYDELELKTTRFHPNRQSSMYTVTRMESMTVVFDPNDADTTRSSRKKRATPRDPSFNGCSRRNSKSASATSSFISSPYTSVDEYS
The conditions noted are these: cited from earlier work; for safety and tolerability in clinical trials: human, Phase I.

Each structure is given as a SMILES string. Like-named read-outs stand apart in the source and are kept apart here.

As for `CCC(NC(=O)c1c(O)c(-c2ccccc2)nc2ccccc12)c1ccccc1` (stereo not drawn) [Talnetant, 3-hydroxy-2-phenyl-N-(1-phenylpropyl)quinoline-4-carboxamide], the “safety and tolerability in clinical trials” value was “exhibited safety”. For the same compound, where the note is “human trials, Phase II/III”, the “efficacy in schizophrenia and major depressive disorder” value is “lack of efficacy”. In addition, the “safety and tolerability in clinical trials” value (listed as talnetant) was “safe and well-tolerated”.
